Series [1] concerns Melan-a murine melanocytes. As to the kind of experiment: Melanin inhibition assay. The series is classed as cell-based. As to conditions: melan-a cells; for reduction in melanin content: 100 μg/ml in 0.36% pentylene glycol:0.036% DMSO, FIG. 3. The method, then:
(§1) Melan-a murine melanocytes (Wellcome Trust Functional Genomics Cell Bank, St. George Hospital, London, UK) were plated one day prior to treatment in 24 well plates at a density of 5×10^4 cells per well in 1 ml of melan-a cell medium (RPMI-1640, 10% Fetal Bovine Serum (FBS), 1% Penicillin/Streptomycin, 100 μM β-mercaptoethanol, 2 mM L-Glutamine and 200 nM Phorbol 12-myristate 13-acetate) in a 10% CO2 incubator maintained at 37° C. After seeding the cells for 24 hours in triplicate, cells were treated as indicated below. After two days of treatment, the culture media was changed and fresh samples were added and incubated overnight. The cells were initially tested for cell viability and cytoxicity using the WST-1 assay (Roche Applied Science). Following the WST-1 assay, the cells were washed in IX PBS and harvested in extraction buffer for melanin isolation and quantification.
Cells from each well of the 24 well plate were harvested in cell lysis buffer (1% Triton X 100, 50 mM Tris, 2 mM EDTA, 150 mM NaCl, pH 7.5 supplemented with a complete protease inhibitor cocktail). Cell lysates were centrifuged at 20,000 g for 10 min at 4° C. Protein levels in the supernatant were quantified using a Pierce BCA Protein assay kit (Thermo Scientific Corp). Melanin-containing precipitates were washed in 100 μl of ethanol:ether (1:1) for 10 min at room temperature. The ethanol:ether solution was discarded and the melanin-pellets were dissolved in 200 μl of 2N NaOH in 20% DMSO solution and incubated at 70° C. for 60 min. The resulting melanin extract was analyzed by measuring absorbance at 490 nm. The melanin content in each sample was evaluated by normalizing each sample to the total amount of protein.

The test system of a further series is melan-a cells. In words: WST-1 assay for cell viability and cytotoxicity. The series is classed as cell-based, murine. As to conditions: at the concentrations tested. The method, then:
as §1

The structures appear in SMILES notation.

`CCCCC/C=C\C/C=C\CCCCCCCC(=O)O` [linoleic acid]: the “reduction in melanin content” value in series [1] is on record as “comparatively minor reductions”. Besides, the “cytotoxicity to melan-a cells (WST-1)” value in the series with melan-a cells is listed as “not cytotoxic”. For `NC(=S)Nc1ccccc1` [phenylthiourea], the “reduction of melanin content” value in series [1] (positive control, FIG. 4 experiment) came to 70%.

`CC/C=C\C/C=C\C/C=C\CCCCCCCC(=O)O` [α-linolenic acid]: the “reduction in melanin content” value in series [1] is “comparatively minor reductions”. In the series with melan-a cells, the “cytotoxicity to melan-a cells (WST-1)” value is “not cytotoxic”.

The values above are taken from patent US8916212B2, “Skin whitening composition containing chia seed extract” (Access Business Group International LLC, priority 2011, dated 2014).
